Data published in patent publication US20130005759A1, “SMALL MOLECULE MODIFIERS OF MICRORNA MIR-122” (North Carolina State University, priority 2010, published 2013).

Tests used:
miR-21 = miR-21 luciferase reporter assay in HeLa-miR-21-Luc cells; assay type: cell-based; details: 10 μM, 48 hours
Description: Using the previously described HeLa-miR-21-Luc cell line (a stably transfected line harboring a miR-21 binding sequence in the 3′ UTR of a firefly luciferase gene),(9) cells were grown to 80% confluency (DMEM) and treated with either DMSO, the previously reported miR-21 inhibitor, or compounds 1 and 2 at 10 μM (1% DMSO final concentration). The cells were incubated for 48 hours at 37° C. (5% CO2) and then assayed with a Bright-Glo Luciferase Kit (Promega) and analyzed using a Wallac VICTOR^3V luminometer with a measurement time of 1 s and a delay time of 2 s (FIG. 4).

miR-122 = assay: psiCHECK-miR122 dual luciferase reporter assay in Huh7 cells; assay type: cell-based, human; details: for EC50: Homo sapiens, Huh-7, read-out: EC50 (miR-122 inhibitors, luciferase dose response); for Renilla luciferase expression with psiCHECK-miR122 (in words): Huh7, 10 μM (antagomir transfected), normalized to DMSO; for increase in the relative luciferase signal / relative luciferase units (RLU) normalized to a DMSO control: Huh7, psiCHECK-miR122, 10 μM; for increase in the relative luciferase signal: 48 hours; for relative luciferase units (RLU) normalized to a DMSO control: mean ± SD of three independent assays
Source text: A miRNA small molecule modifier screen for miR-122 was developed based on the psiCHECK-2 (Promega) reporter plasmid (FIG. 9). This construct expresses both Renilla luciferase as well as firefly luciferase, allowing for the normalization of the signal to account for differential cellular viability and variability in transfection efficiency. The miR-122 target sequence was inserted downstream of the Renilla luciferase gene, between the PmeI and SgfI restriction sites. In another aspect of the invention, plasmids expressing luciferase or another reporter gene such as for example, fluorescent reporters (GFP and variants thereof, DsRed, etc.) or beta-galactosidase can be used to screen for small molecule modifiers of miR-122. The mi-122 target sequence may be upstream or downstream of the reporter gene. Multiple miR-122 target sites can also be inserted into or be present in the plasmid.
The presence of mature miR-122 will lead to a decrease in the Renilla luciferase signal (FIG. 1a). The ability to detect endogenous miR-122 was validated by transfecting the generated psiCHECK-miR122 construct into Huh7 and HeLa cells. After 48 hour incubation, the cells were assayed using a Dual Luciferase Assay Kit (Promega). In another embodiment, the cells can be incubated for about 24-96 hours. The Dual Luciferase Assay Kit provides a means to measure the amount of the luciferases by generating a luminescent signal. Using this assay the luminescence from the firefly luciferase reaction may be quenched while the luminescent reaction of Renilla luciferase can be activated. Other assays and procedures that can determine the amount of the one or more reporter genes or miR-122 expression, activity or function can be used. An example of another assay is Dual-Glo Assay (Promega).
The psiCHECK-miR122 vector was then employed in a small molecule screen in Huh7 cells to discover modifiers of miR-122 function. Other cells that express miR-122 such as HepG2 and Hep3B can be used in addition to or instead of Huh7 cells. An increase in the relative Renilla luciferase signal indicates a miR-122 inhibitor, while a reduction in the luciferase signal indicates a miR-122 activator. A genus of compounds that may have activity as modifiers of miR122 function are the Diversity Set II (1364 compounds) from the NCI Developmental Therapeutics Program was screened using Huh7 cells containing the psiCHECK-miR122 reporter. Cells were exposed to the small molecules and the relative luciferase signal was measured after 48 hours using a Dual Luciferase Assay Kit (Promega). In another embodiment the cells can be exposed to the small molecules for about 24-96 hours. As explained above, other assays and procedures that can determine the amount of the one or more reporter genes or miR-122 expression, activity or function can be used.
The analogs were screened for activity using the previously described miR-122 assay. All cells were treated with 10 μM of a compound and experiments were performed in triplicate to ensure statistical validity. The data was normalized to a 1% DMSO control and is reported in relative luciferase units (RLU). The standard deviation was calculated from three independent assays. Some analogs of miR-122 inhibitor compound 1 are:
Huh7 and HeLa cells were transfected at approximately 60% confluency with either the psiCHECK-Control plasmid (the original psiCHECK-2 plasmid containing no known miRNA binding site) or the psiCHECK-miR122 plasmid (0.5 μg) using X-tremGENE transfection reagent (3:2 reagent/DNA ratio; Roche) in Opti-Mem media (Invitrogen). All transfections were performed in triplicate for statistical analysis. The cells were incubated at 37° C. for 4 hours followed by the replacement of transfection media with standard DMEM growth media. After 48 hours of incubation the media was removed, cells were lysed and assayed with a Dual Luciferase Assay Kit (Promega) using a Wallac VICTOR^3V luminometer with a measurement time of 1 s and a delay time of 2 s. […]

Row | Structure (SMILES) | activity in miRNA-21 reporter (luciferase signal) (miR-21) | EC50 (miR-122) [µM] | Renilla luciferase expression with psiCHECK-miR122 (in words) (miR-122) | increase in the relative luciferase signal (miR-122) [%] | relative luciferase units (RLU) normalized to a DMSO control (miR-122) [RLU]
1 | O=S(=O)(c1ccc2c(c1)CCCN2)N1CCC[C@H]2CCCC[C@@H]21 [Compound 2] | no activity was found | 12.5 ± 1.25 | significant increase | 1251±125 | 12.51±1.25
2 | O=C(Nc1ccc2ccccc2c1)c1ccc(Cl)cc1Cl [Compound 1] | no activity was found | 7.73 ± 0.38 | significant increase | 773±38 | 7.73±0.38
